Laboratory results taken from patent publication US20190365776A1, “THERAPEUTIC AGENT FOR OCULAR FUNDUS DISEASE” (KYUSHU UNIVERSITY, NATIONAL UNIVERSITY CORPORATION, priority 2013, published 2019).

How the values were obtained:
[1] = tested on: mice OIR (Oxygen-Induced Retinopathy) model; test: Mice OIR (oxygen-induced retinopathy) model, flat-mounted retina; type: in vivo, C57BL/6JJcl mice; settings: ocular instillation 20 μL three times a day, day 12 to day 17 after birth, flat mount
Method: The effectiveness of (S)-(−)-1-(4-fluoro-5-isoquinolinesulfonyl)-2-methyl-1,4-homopiperazine (compound 1) in a mice OIR model commonly used as a model of ischemic retinopathy such as diabetic retinopathy was examined in the following manner. Compound 1 solutions: 0.4% solution, 0.8% solution (instillation volume: 20 μL) Fasudil solution: 0.4% solution (instillation volume: 20 μL) Test animals: C57BL/6JJcl mice (sex: male, 8 to 14 mice per group) C57BL/6JJcl mice born on the same day were reared in a 75%-oxygen environment from day 7 after birth, and were then transferred to a normal indoor environment on day 12 after birth to start administration by ocular instillation. Test groups were a saline instillation group (control), a 0.4% compound 1 solution instillation group, a 0.8% compound 1 solution instillation group, and a 0.4% fasudil solution instillation group, and saline, the compound 1 solution, or the fasudil solution was administered by ocular instillation three times a day. On day 17 after birth, ischemic retinal areas (non-perfused areas) and neovascular areas were quantified for evaluation by flat-mounting or fluorescein fundus angiography. More specifically, 1 g/kg of pentobarbital (Nembutal) was administered intraperitoneally for euthanasia under deep anesthesia, and then both eyeballs were excised and fixed with 4% paraformaldehyde (PFA) at 37° C. for 1 hour, and the corneal limbus was circumferentially incised to remove the cornea and iris from the eyeball. Then, after fixation with 4% PFA at 37° C. for 1 hour, the lens, sclera, and choroid were removed, and the eye cup including the retina was isolated. Further, the retina was fixed with 4% PFA at 37° C. for 3 hours, washed with PBS three times (15 min per wash, 37° C.), dehydrated (methanol 50% 100%, 10 min per methanol treatment, 37° C.), washed with PBS three times (15 min per wash, 37° C.), and blocked with Blocking Buffer (1% BSA, 0.5% Triton-X in PBS) for 60 minutes (37° C.). Then, the retina was treated with a primary antibody (0.7% FITC-conjugates Anti-lectin Ab in PBS, 4° C., overnight) and washed with PBS three times (15 min per wash, 37° C.). Then, 4 to 6 cuts were radially made in the eye cup, and the flat-mounted retina was covered with Crystal Mount. Then, the image of the flat-mounted retina was taken with a fluorescence microscope (BZ-9000, KEYENCE Corp, Osaka, Japan), and the proportion of the non-perfused area to the entire retina and the proportion of the neovascular area to the entire retina were calculated by the following formulas in NIH image J software. The thus obtained values were converted to relative values by regarding the obtained values of the saline instillation group (control) as 100%, and statistical analysis was performed by Wilcoxon test. Non-perfused area=area of avascular region/area of entire retina Neovascular area=area of neovascular region/area of entire retina

[2] = tested on: mice CNV (Choroidal Neovascularization) model; test: Mice CNV (choroidal neovascularization) model, laser photocoagulation; type: in vivo, C57BL/6JJcl mice; settings: ocular instillation three times a day, day 0 to day 7, control 109177±26399
Method: The effectiveness of the compound 1 in a mice CNV model known as a model of age-related macular degeneration or the like was examined in the following manner.
Compound 1 solutions prepared in the same manner as in Example 1: 0.4% solution, 0.8% solution (instillation volume: 20 μL)
Test animals: C57BL/6JJcl mice (6- to 10-week old, sex: male, 11 to 12 mice per group)
The preparation of a CNV model and evaluation were performed with reference to a literature (e.g., J. Leukoc. Biol. 2003; 74: 25-32, or Am. J. Pathol. 1998; 153: 1641-1646). More specifically, each of the mice was given tropicamide by ocular instillation to cause mydriasis, anesthetized by intraperitoneal administration of 100 mg/kg of Ketalar and 10 mg/kg of Selactar, and subjected to photocoagulation at 4 spots per eye. The photocoagulation was performed by krypton laser irradiation (75-μm spot size, 0.1 seconds duration, 200 mW) with a slit-lamp delivery system using a cover glass as a contact lens. Test groups were a saline instillation group (control), a 0.4% compound 1 solution instillation group, and a 0.8% compound 1 solution instillation group. […] More specifically, a spot with bleeding or tissue destruction was excluded, the CNV volume of each spot adopted was calculated by NIS-Elements AR Version 4.13, and then an average value (μm^3) per eye was calculated.

C[C@H]1CNCCCN1S(=O)(=O)c1cccc2cncc(F)c12 [compound 1, (S)-(−)-1-(4-fluoro-5-isoquinolinesulfonyl)-2-methyl-1,4-homopiperazine]
relative value of the neovascular area (saline instillation group = 100%) ([1]; 0.4% solution): 58.2%
relative value of the non-perfused area (saline instillation group = 100%) ([1]; 0.4% solution): 77.0%
relative value of the neovascular area (saline instillation group = 100%) ([1]; 0.8% solution): 52.7%
relative value of the non-perfused area (saline instillation group = 100%) ([1]; 0.8% solution): 58.1%
CNV volume (mean±standard error, average per eye) ([2]; 0.4% solution): 56408±9007 μm^3
CNV volume (mean±standard error, average per eye) ([2]; 0.8% solution): 88387±33678 μm^3
